Measurements: article PMC2879007 (Biochemical pharmacology, 2010)
Marks after values point to notes of the source that are not given here.

Assays:
[1] = tested on: human CYP2D6 EM hepatocytes; experiment: 5-MeO-DMT depletion and bufotenine formation in human CYP2D6 EM hepatocytes
[2] = serum pharmacokinetics in Tg-CYP2D6; format: in vivo, mice; conditions: for Cmax / MRT / Tmax / half-life: Tg-CYP2D6 (CYP2D6-humanized), mouse, ip; for Cmax / MRT / Tmax / half-life / AUC0→∞: serum; for increase of systemic exposure (AUC0→∞) by harmaline pre-treatment: 5-MeO-DMT 2 mg/kg i.p., harmaline 5 mg/kg i.p.
[3] = tested on: human CYP2D6 PM hepatocytes; experiment: 5-MeO-DMT depletion and bufotenine formation in human CYP2D6 PM hepatocytes
[4] = serum pharmacokinetics in wild-type FVB/N mice; format: in vivo; conditions: for Cmax / MRT / Tmax / half-life: FVB/N (wild-type), mouse, ip; for Cmax / MRT / Tmax / half-life / AUC0→∞: serum; for increase of Cmax by co-administered harmaline / increase of MRT by co-administered harmaline / increase of systemic exposure (AUC0→∞) by harmaline pre-treatment: 5-MeO-DMT 2 mg/kg i.p., harmaline 5 mg/kg i.p.
[5] = 5-MeO-DMT depletion and bufotenine formation in human CYP2D6 EM hepatocytes; conditions: human, 5-MeO-DMT alone, 2 µM; for hepatocyte CLint at 2 µM: In vitro CLint
CYP2D6.10 = CYP2D6.10 (Homo sapiens, UniProt P10635, P34S/S486T); experiment: bufotenine production from 5-MeO-DMT by recombinant CYP2D6.10; format: in vitro ADME
CYP2D6.1 = CYP2D6.1 (Homo sapiens, UniProt P10635); experiment: bufotenine production from 5-MeO-DMT by recombinant CYP2D6.1; format: in vitro ADME
[6] = 5-MeO-DMT depletion and bufotenine formation in human CYP2D6 PM hepatocytes; conditions: human, 5-MeO-DMT alone, 2 µM; for hepatocyte CLint at 2 µM: In vitro CLint
CYP2D6.2 = CYP2D6.2 (Homo sapiens, UniProt P10635, R296C/S486T); experiment: bufotenine production from 5-MeO-DMT by recombinant CYP2D6.2; format: in vitro ADME
purified human MAO-A = conditions: reversible competitive inhibitor; cited from earlier work
[7] = Tg-CYP2D6 mice, 2 mg/kg 5-MeO-DMT alone i.p.
[8] = wild-type mice, 2 mg/kg 5-MeO-DMT alone i.p.
[9] = 5-MeO-DMT O-demethylase activity
[10] = bufotenine production from 5-MeO-DMT, Vmax/Km
[11] = bufotenine production from 5-MeO-DMT, mean ± SEM
[12] = PM hepatocytes 2, with harmaline, 2 µM each
[13] = PM hepatocytes 3, with harmaline, 2 µM each
[14] = PM hepatocytes 4, with harmaline, 2 µM each

SMILES: CN(C)CCc1c[nH]c2ccc(O)cc12 [Bufotenine, 5-hydroxy-N,N-dimethyltryptamine]
- bufotenine formation from 5-MeO-DMT ([1]; CYP2D6 EM hepatocytes): only detected in incubations with CYP2D6 EM hepatocytes
- higher systemic exposure in Tg-CYP2D6 mice than wild-type mice ([2]; 20 mg/kg 5-MeO-DMT i.p.): 60%
- Cmax ([2]; 2 mg/kg): 0.053 ± 0.013 µM
- MRT ([2]; 2 mg/kg): 33.7 min
- Tmax ([2]; 2 mg/kg): 8.8 min
- half-life ([2]; 2 mg/kg): 20.7 ± 9.8 min
- MRT ([2]; 20 mg/kg): 52.8 min
- Tmax ([2]; 20 mg/kg): 27.5 min
- half-life ([2]; 20 mg/kg): 18.5 ± 1.5 min
- AUC(Bufotenine)/AUC(5−MeO−DMT) [2, 7]: 8.5 ± 2.8%
- AUC(Bufotenine)/AUC(5−MeO−DMT) ([2]; Tg-CYP2D6 mice, 2 mg/kg 5-MeO-DMT i.p. with 5 mg/kg harmaline i.p. pretreatment): 24.0 ± 3.3% ^a, ^b
- increase of systemic exposure (AUC0→∞) by harmaline pre-treatment ([2]; Tg-CYP2D6 mice): 9.9 fold
- AUC0→∞ [2, 7]: 1.82 ± 0.74 µmol·min/L
- bufotenine formation from 5-MeO-DMT ([3]; CYP2D6 PM hepatocytes, even co-incubated with harmaline): could not produce detectable bufotenine
- Cmax ([4]; 2 mg/kg): 0.0514 ± 0.0091 µM
- MRT ([4]; 2 mg/kg): 54.9 min
- Tmax ([4]; 2 mg/kg): 11.3 min
- half-life ([4]; 2 mg/kg): 33 ± 26 min
- Cmax ([4]; 20 mg/kg): 0.21 ± 0.054 µM
- MRT ([4]; 20 mg/kg): 55.8 min
- Tmax ([4]; 20 mg/kg): 21.3 min
- half-life ([4]; 20 mg/kg): 25.4 ± 5.3 min
- AUC0→∞ [4, 8]: 2.69 ± 1.21 µmol·min/L
- AUC(Bufotenine)/AUC(5−MeO−DMT) [4, 8]: 10.5 ± 4.4%
- AUC(Bufotenine)/AUC(5−MeO−DMT) ([4]; wild-type mice, 2 mg/kg 5-MeO-DMT i.p. with 5 mg/kg harmaline i.p. pretreatment): 15.1 ± 2.9%
- increase of Cmax by co-administered harmaline ([4]; wild-type mice): about 2.6 fold
- increase of MRT by co-administered harmaline ([4]; wild-type mice): ~1.8 fold
- increase of systemic exposure (AUC0→∞) by harmaline pre-treatment ([4]; wild-type mice): 6.1 fold

SMILES: COc1ccc2[nH]cc(CCN(C)C)c2c1 [5-MeO-DMT, 5-Methoxy-N,N-dimethyltryptamine]
- half-life at 2 µM ([5]; CYP2D6 EM hepatocytes, In vitro T1/2, EM hepatocytes 1): 32.4 min
- half-life at 2 µM ([5]; CYP2D6 EM hepatocytes, In vitro T1/2, EM hepatocytes 2): 29.9 min
- hepatocyte CLint at 2 µM ([5]; human CYP2D6 EM (extensive metabolizer) hepatocytes, EM hepatocytes 3): 141 µL/min/1e6 cells
- hepatocyte CLint at 2 µM ([5]; human CYP2D6 EM (extensive metabolizer) hepatocytes, EM hepatocytes 4): 51 µL/min/1e6 cells
- hepatocyte CLint at 2 µM ([5]; human CYP2D6 EM (extensive metabolizer) hepatocytes, EM hepatocytes 5): 87.4 µL/min/1e6 cells
- half-life at 2 µM ([5]; human CYP2D6 EM (extensive metabolizer) hepatocytes, In vitro T1/2, EM hepatocytes 3): 25.4 min
- half-life at 2 µM ([5]; human CYP2D6 EM (extensive metabolizer) hepatocytes, In vitro T1/2, EM hepatocytes 4): 34.7 min
- half-life at 2 µM ([5]; human CYP2D6 EM (extensive metabolizer) hepatocytes, In vitro T1/2, EM hepatocytes 5): 20.8 min
- half-life at 2 µM ([5]; human CYP2D6 EM (extensive metabolizer) hepatocytes, In vitro T1/2, EM hepatocytes Mean (N = 5)): 28.6 min
- reduction of in vitro CLint by co-administered harmaline ([1]; CYP2D6 EM hepatocytes, 5-MeO-DMT alone vs with harmaline): over 24 fold
- Ke ([1]; EM hepatocytes 1, 5-MeO-DMT alone, 2 µM): 0.0214 min⁻¹
- Ke ([1]; EM hepatocytes 1, with harmaline, 2 µM each): 0.00259 min⁻¹
- Ke ([1]; EM hepatocytes 2, 5-MeO-DMT alone, 2 µM): 0.0232 min⁻¹
- Ke ([1]; EM hepatocytes 2, with harmaline, 2 µM each): 0.00141 min⁻¹
- Ke ([1]; EM hepatocytes 3, 5-MeO-DMT alone, 2 µM): 0.0273 min⁻¹
- Ke ([1]; EM hepatocytes 3, with harmaline, 2 µM each): 0.00263 min⁻¹
- Ke ([1]; EM hepatocytes 4, 5-MeO-DMT alone, 2 µM): 0.02 min⁻¹
- Ke ([1]; EM hepatocytes 4, with harmaline, 2 µM each): 0.00195 min⁻¹
- Ke ([1]; EM hepatocytes 5, 5-MeO-DMT alone, 2 µM): 0.0333 min⁻¹
- Ke ([1]; EM hepatocytes 5, with harmaline, 2 µM each): 0.00061 min⁻¹
- Ke ([1]; EM hepatocytes Mean (N = 5), 5-MeO-DMT alone, 2 µM): 0.025 min⁻¹
- Ke ([1]; EM hepatocytes Mean (N = 5), with harmaline, 2 µM each): 0.00184 min⁻¹
- lower catalytic efficiency (Vmax/Km) compared with wild-type CYP2D6.1 (CYP2D6.10; [9]): 40 fold
- CLint (CYP2D6.10; [10]): 0.011 µL/pmol P450/min
- Vmax (CYP2D6.10; [11]): 10.3 ± 2.2 pmol/pmol P450/min
- Km at 20 min (CYP2D6.10; human, recombinant CYP2D6.10 reconstituted with P450 reductase, pH 7.4): 947 ± 355 µM
- CLint (CYP2D6.1; [10]): 0.44 µL/pmol P450/min
- Vmax (CYP2D6.1; [11]): 12.8 ± 0.4 pmol/pmol P450/min
- Km at 5 min (CYP2D6.1; human, recombinant CYP2D6.1 reconstituted with P450 reductase, pH 7.4): 29.3 ± 4.2 µM
- Cmax ([2]; 2 mg/kg): 1.19 ± 0.33 µM
- MRT ([2]; 2 mg/kg): 17.4 min
- Tmax ([2]; 2 mg/kg): 5.8 min
- half-life ([2]; 2 mg/kg): 14.7 ± 9 min
- Cmax ([2]; 20 mg/kg): 18.7 ± 0.9 µM
- MRT ([2]; 20 mg/kg): 23.1 min
- Tmax ([2]; 20 mg/kg): 6.3 min
- half-life ([2]; 20 mg/kg): 13.4 ± 1.4 min
- clearance [2, 7]: 26.4 ± 3 L/h/kg
- increase of systemic exposure (AUC0→∞) by harmaline pre-treatment ([2]; Tg-CYP2D6 mice): 3.6 fold
- AUC0→∞ [2, 7]: 21.1 ± 2.3 ^b µmol·min/L
- AUC0→∞ ([2]; Tg-CYP2D6 mice, 20 mg/kg 5-MeO-DMT i.p.): 568 ± 72 µmol·min/L
- hepatocyte CLint at 2 µM ([6]; CYP2D6 PM hepatocytes, PM hepatocytes Mean (N = 4)): 81.9 µL/min/1e6 cells
- half-life at 2 µM ([6]; CYP2D6 PM hepatocytes, In vitro T1/2, PM hepatocytes Mean (N = 4)): 30.8 min
- hepatocyte CLint at 2 µM ([6]; human CYP2D6 PM (poor metabolizer) hepatocytes, PM hepatocytes 1): 66.5 µL/min/1e6 cells
- hepatocyte CLint at 2 µM ([6]; human CYP2D6 PM (poor metabolizer) hepatocytes, PM hepatocytes 2): 95.8 µL/min/1e6 cells
- hepatocyte CLint at 2 µM ([6]; human CYP2D6 PM (poor metabolizer) hepatocytes, PM hepatocytes 3): 88 µL/min/1e6 cells
- half-life at 2 µM ([6]; human CYP2D6 PM (poor metabolizer) hepatocytes, In vitro T1/2, PM hepatocytes 1): 37.2 min
- half-life at 2 µM ([6]; human CYP2D6 PM (poor metabolizer) hepatocytes, In vitro T1/2, PM hepatocytes 2): 27.6 min
- half-life at 2 µM ([6]; human CYP2D6 PM (poor metabolizer) hepatocytes, In vitro T1/2, PM hepatocytes 3): 32.2 min
- half-life at 2 µM ([6]; human CYP2D6 PM (poor metabolizer) hepatocytes, In vitro T1/2, PM hepatocytes 4): 26.1 min
- Ke ([3]; PM hepatocytes 1, 5-MeO-DMT alone, 2 µM): 0.0186 min⁻¹
- Ke ([3]; PM hepatocytes 1, with harmaline, 2 µM each): 0.00086 min⁻¹
- Ke ([3]; PM hepatocytes 2, 5-MeO-DMT alone, 2 µM): 0.0251 min⁻¹
- In vitro T1/2 [3, 12]: cannot be estimated
- Ke [3, 12]: cannot be estimated
- Ke ([3]; PM hepatocytes 3, 5-MeO-DMT alone, 2 µM): 0.0215 min⁻¹
- In vitro T1/2 [3, 13]: cannot be estimated
- Ke [3, 13]: cannot be estimated
- Ke ([3]; PM hepatocytes 4, 5-MeO-DMT alone, 2 µM): 0.0265 min⁻¹
- In vitro T1/2 [3, 14]: cannot be estimated
- Ke [3, 14]: cannot be estimated
- Ke ([3]; PM hepatocytes Mean (N = 4), 5-MeO-DMT alone, 2 µM): 0.0229 min⁻¹
- Ke ([3]; PM hepatocytes Mean (only one sample estimable), with harmaline, 2 µM each): 0.00086 min⁻¹
- Cmax ([4]; 2 mg/kg): 1.36 ± 0.16 µM
- MRT ([4]; 2 mg/kg): 19.1 min
- Tmax ([4]; 2 mg/kg): 5.3 min
- half-life ([4]; 2 mg/kg): 19.5 ± 12.2 min
- Cmax ([4]; 20 mg/kg): 18.3 ± 2.8 µM
- MRT ([4]; 20 mg/kg): 27.2 min
- Tmax ([4]; 20 mg/kg): 7.5 min
- half-life ([4]; 20 mg/kg): 13.4 ± 1 min
- AUC0→∞ [4, 8]: 25.1 ± 1.3 µmol·min/L
- AUC0→∞ ([4]; wild-type mice, 20 mg/kg 5-MeO-DMT i.p.): 650 ± 78 µmol·min/L
- clearance [4, 8]: 22.2 ± 1.2 L/h/kg
- increase of Cmax by co-administered harmaline ([4]; wild-type mice): about 1.4 fold
- increase of MRT by co-administered harmaline ([4]; wild-type mice): ~2.1 fold
- increase of systemic exposure (AUC0→∞) by harmaline pre-treatment ([4]; wild-type mice): 4.4 fold
- lower catalytic efficiency (Vmax/Km) compared with wild-type CYP2D6.1 (CYP2D6.2; [9]): 2.6 fold
- CLint (CYP2D6.2; [10]): 0.17 µL/pmol P450/min
- Vmax (CYP2D6.2; [11]): 14.4 ± 0.9 pmol/pmol P450/min
- Km at 5 min (CYP2D6.2; human, recombinant CYP2D6.2 reconstituted with P450 reductase, pH 7.4): 85 ± 19.4 µM

SMILES: COc1ccc2c3c([nH]c2c1)C(C)=NCC3 [Harmaline]
- Ki (purified human MAO-A): 0.048 µM
